Columns and labels:
Rattus norvegicus [1] = species on record: Rattus norvegicus; assay: In vitro inhibitory activity of glycine (0.3 uM) responses in isolated cultured cortical neurons; assay type: functional
[2] = target: Glutamate receptor ionotropic, NMDA 1 (Rattus norvegicus, UniProt P35439); assay: Inhibition of [3H]glycine binding to rat cortical membranes; assay type: cell membranes, Membrane
[3] = Compound was evaluated for the pKa value; assay type: physicochemical
[4] = Compound was evaluated for the pKa value in experiment 1; assay type: physicochemical
[5] = Compound was evaluated for the pKa value in experiment 2; assay type: physicochemical
[6] = Compound was evaluated for the octanol-water partition coefficient […] at pH 7.4; assay type: physicochemical
Rattus norvegicus [7] = species on record: Rattus norvegicus; assay: Tested in vitro for the inhibitory constant of glycine (0.3 uM) responses in isolated cultured cortical neurones; assay type: functional

SMILES | Ki (Rattus norvegicus [1]) [µM] | IC50 [2] [µM] | Inhibition (Rattus norvegicus [1]) [%] | other results
N[C@H]1C(=O)N(O)C[C@H]1O | 0.75 | 1.3 | – | –
CCC[C@@H]1CNC(=O)[C@@H]1N | – | > 100 | 39 | –
C[C@@H]1CN(OCc2ccccc2)C(=O)[C@@H]1N | – | – | – | pKa [3]: 6.1
N[C@H]1C(=O)N(O)C[C@@H]1O | – | 313 | 30 | –
O=C1C2CC(CN2)N1O (stereo not given) | 5 | – | – | –
NC1CCN(OCc2ccccc2)C1=O (stereo not given) | – | – | – | pKa [4]: 6.2; pKa [5]: 6.6
C[C@@H]1C2NCCC1N(O)C2=O (stereo not given in full) | > 80 | > 100 | – | –
C[C@H]1C2NCCC1N(O)C2=O (stereo not given in full) | 8.2 | 48 | – | –
O=C1C2CC(CCN2)N1O (stereo not given) | 3.5 | 19 | – | –
O=C1C2NCCC2CN1O (stereo not given) | – | > 100 | 52 | –
N[C@H]1C(=O)N(O)C[C@H]1CCO | – | > 100 | 59 | –
N[C@H]1C(=O)N(O)C[C@H]1CO | – | > 100 | 63 | –
O=C1C2CC(CCN2)CN1O (stereo not given) | – | > 100 | 28 | –
O=C1C2CC(CN2)CN1O (stereo not given) | – | > 100 | 16 | –
NC1CCN(O)C1=O (single isomer, unassigned; (-)) | – | 339 | – | –
N[C@@H]1CCN(O)C1=O (stereo in doubt; 1) | 6.3 | 27.2 | – | pKa [3]: 8.1; logD [6]: 3.52
N[C@@H]1CCN(O)C1=O (stereo in doubt; (+)-1) | 2.5 | 12.5 | – | –

Second part, led by results:

Ki (Rattus norvegicus [1]) [µM] | IC50 [2] [µM] | SMILES | Inhibition (Rattus norvegicus [1]) [%] | other results
15.4 | 15 | CC[C@@H]1CN(O)C(=O)[C@@H]1N | – | –
– | > 100 | C[C@H]1CN(O)C(=O)[C@@H]1N | – | –
– | 86 | C[C@H]1CN(O)C(=O)[C@H]1N | – | –
– | > 100 | N[C@H]1C(=O)N(O)C[C@H]1c1ccccc1 | 0 | –
1.3 | 2.9 | C[C@@H]1CN(O)C(=O)[C@@H]1N (stereo in doubt; 2) | – | pKa [3]: 8; logD [6]: 3.42
– | 1.4 | C[C@@H]1CN(O)C(=O)[C@@H]1N (stereo in doubt; (+)-2) | – | Ki (Rattus norvegicus [7]): 0.65 µM

Reference: ChEMBL document CHEMBL1126977, “Derivatives of 1-hydroxy-3-aminopyrrolidin-2-one (HA-966). Partial agonists at the glycine site of the NMDA receptor” (Bioorg Med Chem Lett, 1993)
